In experiment [1] the test system is LMNA aberrant splicing (MutLMNA-luc cell line). Description: Luciferase assay for repression of LMNA aberrant splicing in stable 293 MutLMNA-luc cell line (293FLP LMNA LUC cells #8). It is filed as cell-based. To be noted: 48 hours, compared to control untreated MutLMNA-luc cell line, read-out: Increase of luciferase activity. An excerpt:
Advantage has been taken of the luciferase system. The luciferase assay is an extremely sensitive and rapid assay. Linear results are seen over at least eight orders of magnitude of enzyme concentration. Moreover, the luciferase assay is well suited for high-throughput applications. To conduct a Mid-throughput screening (MTS) for compounds repressing LMNA aberrant splicing, we have constructed a plasmid in which exon 11, intron 11 and part of exon 12 of LMNA gene were fused with luciferase cDNA (FIG. 2). Both wild type (WtLMNA-luc)(SEQ ID NO: 1) and mutant (MutLMNA-luc)(SEQ ID NO: 2) substrate harbouring exon 11 mutation have been constructed. In these constructs we have generated a single initiation codon in exon 11 such as correct splicing will lead to luciferase expression, while aberrant splicing will skip the initiation codon and thereby prevent luciferase expression. After transfection in HeLa cells, Luciferase assays (FIG. 2B) and RT-PCR (FIG. 2C) indicate that WtLMNA-luc produces predominantly wild type splicing and large amount of luciferase activity, whereas MutLMNA-luc recapitulate the aberrant splicing profile with reduced luciferase expression (FIGS. 2 B and C, compare Wt and Mut). In order to use this system in MTS, we have generated a stable 293 cell lines containing a single integrated copy of luciferase reporter containing LMNA mutation (MutLMNA-luc cell line) using the flp system from INVITROGEN. This system allows us to perform a MTS for compounds able to enhance luciferase activity.
LMNA sequences (1278 bp of exon 11, intron 11 and 46 bp of […]) were PCR-amplified from either control or patient's cells genomic DNA with specific primer PCR fragments were purified with Concert Rapid PCR purification system (Invitrogen) and subcloned at the BamHI and EcoRI restriction sites of the pSppβm3 S1 plasmid containing the βGlobin cassette (Labourier et al., 1999—Recognition of exonic splicing enhancer sequences by the Drosophila splicing repressor RSF1. Nucleic Acids Res. 27, 2377-2386) to give the βGlo3S1LMNAwt and βGlo3S1LMNAmut constructs. The chimeric (3Glo-LMNA sequences were then inserted into the pcDNA3.1D/V5-His-TOPO vector (Invitrogen) to be used in transfection and in vitro splicing experiments. A single initiation codon ATG was kept in exon 11 of LMNA and LMNA sequences described above were fused at their 3′ end to Fyrefly luciferase cDNA (LMNAlucWT) in order that removal of intron 11 generates a transcript that encode a fusion protein harbouring luciferase activity, whereas usage of the cryptic splice site of mutated exon 11 (LMNAlucMut) will remove the initiation codon preventing luciferase expression. Both sequences were cloned in pcDNA3 Flp-In vector (Invitrogen).
A stable 293 cell line containing a single copy of LMNAlucMut minigene was obtained using the Flp-In system from (Invitrogen) according to manufacture procedure. Several clones were obtained and only one clone was used to screen the whole chemical library (293FLP LMNA LUC cells #8).
In a 96 Well Plate sterile, V-shape one put […] of drug compounds at 50 mM and then add 49.5 μl of 10% DMSO.
One pipets […] of drug at 500 μM and adds 200 μL of DMEM+Hygromycin B. At this stage the concentration of drug compound is 10 μM. One shares out 100 μl in a 96 Well Microplate sterile, flat bottom (further called luciferase plate) and 50 μl in other one (further called toxicity plate).
One washes 293FLP LMNA LUC cells once with D-PBS then adds 1 ml trypsin EDTA. Incubation at 37° C. for 2-3 minutes is proceeded. Then one adds 9 ml DMEM (with 10% FCS, P/S).
Cell concentration is brought at 10^5 cells per ml with DMEM+Hygromycin B to have 10^4 cells per 100 μl.
100 μl of suspension cells is added (at 10^4 cells per 100 μl) so final concentration of compounds is […].
Medium of the wells is gently removed then washed once by adding slowly 150 μl of D-PBS 1×. D-PBS is removed. 40 μl of PLB 1× is added and incubated at RT for 30 minutes. […]

For experiment [2], the system named is HIV-1. Briefly: Inhibition of HIV-1 production (p24 antigen) in infected peripheral blood mononuclear cells (PBMCs). It is filed as cell-based, HIV-1 (AdaM) in PBMCs of healthy donors. To be noted: for Inhibition of p24 production in HIV infected PBMCs from different donors: tested molecules at 10 μM, p24 after 3 and 6 days of infection, number of donors with inhibition out of donors tested. As to the method:
Within this framework, the peripheral blood mononuclear cells (PBMCs) of healthy donors are isolated by centrifugation on a FICOLL gradient. The cells are then cultivated to a density of 2.5×10^6 cells/ml with RPMI medium supplemented with 1% inactivated human AB serum, then incubated at 37° C., 5% CO2 for an additional hour. The peripheral blood mononuclear cells are then recovered and cultivated for two days in RPMI medium supplemented with 10% fetal calf serum.
A standard experiment using 96 plates to test 30 molecules in triplicates including positive and negative controls, is performed as follows:
50 10^6 Ficoll purified PBMCs (10% DMSO 90% FCS) are washed with RPMI 10% FCS and resuspended in 25 ml of RPMI 10% FCS, glutamax containing 1000 U/ml of IL2 and 5 μg/ml PHA. The cells are then incubated for 3 days at 37° C. before to be washed with 50 ml PBS then with 50 ml RPMI 10% FCS. The cells are resuspended in 100 μl of RPMI 10% FCS containing 100 U/ml IL2 and seeded in 96 wells (1.5 10^5 cells/well). Viral infection is performed with 1 ng of AdaM/well. 100 μl of tested molecules at concentration of 10 μM are added to each well. Virus production is determined by p24 antigen immunosorbent assays after 3 and 6 days of infection (Kit Innogenetics). Typically PBMCs are prepared from several healthy donors (around 11 different donors). Dose response curves were then established with selected compounds to determine IC50.

Data on 6 molecules can be found in patent US10975063B2, “Compound, and production method thereof, and methods of treatment using the compound” (ABIVAX, priority 2009, dated 2021).

One may read the IC50 as the concentration that inhibits the measured activity by half. High values mean lower potency, low ones higher potency.

On to `Cc1cc(OC(F)(F)F)ccc1Nc1ccc2ccccc2n1` [Compound 82, N-[2-methyl-4-(trifluoromethoxy)phenyl]quinolin-2-amine], for which the fold induction at 5 µM in experiment [1] turned out to be 3.41. Further, the “Inhibition of p24 production in HIV infected PBMCs from different donors” value (shortened to “Inhibition … from different donors”) in experiment [2] is listed as 4 out of 4 donnors.
For `Clc1ccc2nc(Nc3cnccn3)ccc2c1` [Compound 109, 6-chloro-N-(pyrazin-2-yl)quinolin-2-amine], in that order: 2.79 and 8 out of 8 donnors.
For `Cc1cccc(Nc2cc(C)c3ccccc3n2)n1` [Compound 45, 4-methyl-N-(6-methylpyridin-2-yl)quinolin-2-amine], in that order: 3.08 and 4 out of 4 donnors.
As to `O=[N+]([O-])c1cccnc1Nc1cnc2ccccc2c1` [Compound 106, N-(3-nitropyridin-2-yl)quinolin-3-amine], the fold induction at 5 µM in experiment [1] was found to be 2.77. In addition, half-maximal inhibition in experiment [2] (Human immunodeficiency virus 1, PBMC, p24 production in HIV infected PBMCs, dose response curves) (IC50) required 0.5 nM. Besides, in experiment [2], the “Inhibition … from different donors” value was 6 out of 6 donnors.
Regarding `Cc1ccnc(Nc2cnc3ccccc3n2)c1` [Compound 136, N-(4-methylpyridin-2-yl)quinoxalin-2-amine], in experiment [1], the fold induction at 5 µM was found to be 5.2. In addition, in experiment [2], the “Inhibition … from different donors” value was 6 out of 8 donnors.
On the same counts, the results for `Fc1cccc(Nc2ccc3ccccc3n2)c1` [Compound 86, N-(3-fluorophenyl)quinolin-2-amine] are 2.77 and 3 out of 4 donnors.
